This assay has as its target T1, human ERβ (Homo sapiens, UniProt Q92731).
T1 construct: purchased Life Technologies
As to the kind of experiment: PolarScreen ERβ competitive binding assay (fluorescence polarization). Conditions: recombinant human ERβ 23 nM, 4.5 nM Fluormone ES2 Green, 2 h; approximate IC50; read-out: IC50 (displacement of Fluormone ES2 Green from ERβ).
T1 sequence (Q92731 whole entry): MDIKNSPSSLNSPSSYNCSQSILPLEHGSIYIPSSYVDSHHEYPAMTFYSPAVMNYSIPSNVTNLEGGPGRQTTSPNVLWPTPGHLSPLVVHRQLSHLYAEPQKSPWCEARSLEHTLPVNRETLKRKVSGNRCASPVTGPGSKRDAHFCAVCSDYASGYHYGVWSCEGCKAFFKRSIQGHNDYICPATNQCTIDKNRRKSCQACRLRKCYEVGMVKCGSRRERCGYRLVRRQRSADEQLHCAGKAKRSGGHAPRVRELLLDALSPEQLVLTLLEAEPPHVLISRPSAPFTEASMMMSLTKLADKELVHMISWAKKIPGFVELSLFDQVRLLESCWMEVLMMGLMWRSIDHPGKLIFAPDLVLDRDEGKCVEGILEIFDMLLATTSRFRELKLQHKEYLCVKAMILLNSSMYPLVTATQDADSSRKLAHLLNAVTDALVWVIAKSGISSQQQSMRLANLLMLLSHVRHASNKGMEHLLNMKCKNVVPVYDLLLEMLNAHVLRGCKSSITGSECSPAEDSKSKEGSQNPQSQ
Usually IC50 stands for the concentration that inhibits the measured activity by half. Take `OC[C@H]1O[C@@H](Oc2cc3c(O)cc(O)cc3[o+]c2-c2ccc(O)c(O)c2)[C@H](O)[C@@H](O)[C@@H]1O` [C3G, cyanidin-3-glucoside]: the IC50 was found to be 2.8 µM.

On to `OC[C@H]1O[C@@H](Oc2cc3c(O)cc(O)cc3[o+]c2-c2cc(O)c(O)c(O)c2)[C@H](O)[C@@H](O)[C@@H]1O` [D3G, delphinidin-3-glucoside], for which the IC50 is 9.7 µM.

Consider `C[C@@H]1O[C@@H](OC[C@H]2O[C@@H](Oc3cc4c(O)cc(O)cc4[o+]c3-c3cc(O)c(O)c(O)c3)[C@H](O)[C@@H](O)[C@@H]2O)[C@H](O)[C@H](O)[C@H]1O` [D3R, delphinidin-3-rutinoside], for which the IC50 worked out at 2.3 µM.

Source of the values: paper PMC6017224, “Phytoestrogenic Activity of Blackcurrant Anthocyanins Is Partially Mediated through Estrogen Receptor Beta” (Molecules : A Journal of Synthetic Chemistry and Natural …, 2017).
